Test results published in patent US10188613B2 (UNIVERSITY OF SOUTH FLORIDA, priority 1998, dated 2019).
Counter-ions that a name gives are not always drawn.

What was measured:
TS patients = conditions: Tourette's Syndrome patients; cited from earlier work
Swiss-Webster mice [1] = experiment: Cocaine interaction study, locomotor activity (Example 6); format: in vivo, mouse; conditions: 10 mg/kg ip + cocaine 20 mg/kg ip
Sprague-Dawley rats [2] = experiment: Effects of mecamylamine alone at high dose: seizures and spontaneous locomotor activity (Example 2); format: in vivo, rat; conditions: 10 mg/kg s.c., 30 min
Description: Male Sprague-Dawley rats (n=96) weighing between 200 and 250 grams upon arrival were used for this study (Harlan Laboratories, Ind.). The rats were housed two per cage, allowed one week to acclimate to animal facility before testing, kept on a reverse lighting schedule (7:00-19:00 lights off), and allowed free access to food and water. Testing occurred between 10:00 a.m. and 3:00 p.m. in a dimly lit room maintained at 22° C. The experimental procedures carried out in this study were in compliance with the Guide for the Care and Use of Laboratory Animals (National Research Council, 1996) and had the prior approval of the University of South Florida Institutional Animal Care and Use Committee.
Observation of seizures and locomotor recordings were carried out in clear acrylic 41×41×30 cm test chambers inside Digiscan activity monitors (Accuscan, Inc.). Each monitor employs two arrays of infrared photocell beams (8×8 photocells, model RXYZCM-8) to detect several parameters of the rat's movement both horizontally and vertically. Data were collected in 5-min bins during testing.
All drugs were dissolved in physiological saline, and nicotine was adjusted to pH with HCl to 7.40. […] All doses are expressed as the free base of the drug. […]
Data was analyzed using a one-way analysis of variance followed by Fishers least significance test for multiple comparisons. […]

[3] = tested on: vagotomized, pithed and artificially respired rats; experiment: Pithed rat: cardiovascular responses to sympathetic nerve stimulation (Example 3); format: in vivo; conditions: for stimulation-induced increases in MAP: 0.8 and 2.2 Hz stimulation, i.v. bolus; for increases in heart rate (δ HR) vs saline-treated rats: 2.2 Hz, highest dose (10 mg/kg i.v.)
[4] = target: NMDA receptor subunits NR1 and NR2b (Homo sapiens, UniProt Q05586+Q13224); experiment: Oocytes coexpressing NMDA receptor subunits (Example 4); format: cell-based; conditions: 100 μM; reversible after a 5-min wash
Description: (§1) For electrophysiology, oocyte recordings were made with an oocyte amplifier (e.g., Warner Instruments, Hamden, Conn., No. OC-725C) and RC-8 recording chamber. Oocytes were placed in the recording chamber with a total volume of about 0.6 ml and perfused at room temperature by frog Ringer's solution (115 mM NaCl, 2.5 mM KCl, 10 mM HEPES pH 7.3, and 1.8 mM CaCl2) containing 1 µM atropine to inhibit potential muscarinic responses. A Mariotte flask filled with Ringer's solution was used to maintain a constant hydrostatic pressure for drug delivery and washes. Drugs were diluted in perfusion solution and loaded into a 2 ml loop at the terminus of the perfusion line. A bypass of the drug-loading loop allowed bath solution to flow continuously while the drug loop was loaded. The drug application was synchronized with data acquisition by using a 2-way electronic valve. The rate of bath solution exchange and drug application was preferably about 6 ml/min. Current electrodes were filled with a solution containing 250 mMCsCl, 250 mM CsF and 100 mM EGTA and had resistances of 0.5-2 MΩ. Voltage electrodes were filed with 3M KCl and have resistances of 1-3MΩ. Oocytes with resting membrane potentials more positive than −30 mV were not used.
(§2) Holding currents immediately before agonist application were subtracted from measurements of the peak response to agonist. […]

[5] = target: hDAT (dopamine transporter) (Homo sapiens, UniProt Q01959); experiment: [125I]RTI-55 binding, HEK293-hDAT membranes (Example 5); conditions: [125I]RTI-55 competition
[6] = tested on: vagotomized, pithed and artificially respired rats; experiment: Pithed rat: plasma catecholamine responses, HPLC (Example 3); format: in vivo
Description: The aim of the study was to determine whether mecamylamine and its stereoisomers have any effect on pressor responses and increases in plasma catecholamines in response to sympathetic nerve stimulation.
In the vagotomized, pithed and artificially respired rats (with oxygen mixed with air), the cardiovascular responses to test compounds measured were mean arterial blood pressure and heart rate; and the catecholamine responses measured were plasma norepinephrine, epinephrine and dopamine. These variables were measured in rats at rest and after electrical stimulation of sympathetic outflow at 0.2 Hz, 0.8 Hz, and 2.2 Hz for a one-minute duration (50 V, 1 msec pulse), and before and after administration of vehicle or a drug. Catecholamine assays were performed by specific HPLC testing. […] Statistical analysis were applied as appropriate.
Plasma catecholamine (CA) levels—norepinephrine (NE), epinephrine (EPI), and dopamine (DA)—were measured by HPLC with an electrochemical detector following administration of doses of all forms of mecamylamine.

human α3β4 receptors = target: T1, human α3β4 receptors (Homo sapiens, UniProt P30926+P32297); experiment: Two-electrode voltage clamp, Xenopus oocytes expressing α3β4 receptors (Example 4); format: cell-based
T1 construct: expressed in transfected cells; host or cells: Xenopus laevis oocytes, cRNA injection

nicotine receptors = experiment: Oocyte electrophysiology, recovery time course and agonist test, receptor subtype not specified (Example 4); format: cell-based, human
Swiss-Webster mice [7] = experiment: Locomotor depression test, compound alone (Example 6); format: in vivo, mouse
[8] = target: hNET (norepinephrine transporter) (Homo sapiens, UniProt P23975); experiment: [125I]RTI-55 binding, HEK293-hNET membranes (Example 5); conditions: [125I]RTI-55 competition
human α3β2 receptors = target: T2, human α3β2 receptors (Homo sapiens, UniProt P17787+P32297); experiment: Two-electrode voltage clamp, Xenopus oocytes expressing α3β2 receptors (Example 4); format: cell-based
T2 construct: expressed in transfected cells; host or cells: Xenopus laevis oocytes, cRNA injection

[9] = target: hSERT (serotonin transporter) (Homo sapiens, UniProt P31645); experiment: [125I]RTI-55 binding, HEK293-hSERT membranes (Example 5); conditions: [125I]RTI-55 competition
[10] = target: α1β1δε mouse muscle receptors (Mus musculus, UniProt P02716+P04756+P09690+P20782); experiment: Oocyte electrophysiology, muscle receptor selectivity (Example 4); format: cell-based
Description: as §1, §2

human α7 receptors = target: T3, human α7 receptors (Homo sapiens, UniProt P36544); experiment: Two-electrode voltage clamp, Xenopus oocytes expressing α7 receptors (Example 4); format: cell-based
T3 construct: expressed in transfected cells; host or cells: Xenopus laevis oocytes, cRNA injection

human α4β2 receptors = target: T4, human α4β2 receptors (Homo sapiens, UniProt P17787+P43681); experiment: Two-electrode voltage clamp, Xenopus oocytes expressing α4β2 receptors (Example 4); format: cell-based
T4 construct: expressed in transfected cells; host or cells: Xenopus laevis oocytes, cRNA injection
Description: Voltage dependence and binding reversibility also were determined. Mature female Xenopus laevis African toads were used as a source of oocytes. After linearization and purification of cloned cDNAs, RNA transcripts were prepared in vitro using the appropriate mMessage mMachine® kit from Ambion Inc. (Austin Tex.). Harvested oocytes were treated with collagenase (Worthington Biochemical Corporation, Freehold N.J.) for two hr at room temperature in calcium-free solution. Subsequently stage 5 oocytes were isolated and injected with 50 nL each of a mixture of the appropriate subunit(s) cRNAs. Recordings were made about 1-7 days after cRNA injection.
as §1, with “Voltage electrodes were filed with 3M KCl and have resistances of 1-3MΩ. Oocytes with resting membrane potentials more positive than −30 mV were not used.” left out
For experiments assessing voltage-dependence of drug inhibition, oocytes were initially voltage clamped at a holding potential of −40 mV or −90 mV and […] control application of ACh alone was delivered. […] Residual inhibition was evaluated with a subsequent application of ACh alone at the test potential, after a 5-min wash period.

Sprague-Dawley rats [11] = experiment: Mecamylamine blockade of nicotine-induced seizures (Example 2); format: in vivo, rat; conditions: for nicotine-induced seizures (percentage of rats that seized): 0.1, 0.3, 1.0 mg/kg s.c. 15 min before nicotine 3.6 mg/kg s.c.; for duration and severity of seizure vs saline comparison group / seizure latency vs saline control: 0.3 and 1.0 mg/kg s.c.
[12] = tested on: Sprague-Dawley derived rats; experiment: Prevention of sensitized locomotor stimulant response to nicotine (Example 1); format: in vivo, rat; conditions: lower doses; nicotine test on day 9
[13] = after co-application of 10 μM with ACh
[14] = 0.1 mg/kg s.c., nicotine 3.6 mg/kg

T3 sequence (P36544 23-502): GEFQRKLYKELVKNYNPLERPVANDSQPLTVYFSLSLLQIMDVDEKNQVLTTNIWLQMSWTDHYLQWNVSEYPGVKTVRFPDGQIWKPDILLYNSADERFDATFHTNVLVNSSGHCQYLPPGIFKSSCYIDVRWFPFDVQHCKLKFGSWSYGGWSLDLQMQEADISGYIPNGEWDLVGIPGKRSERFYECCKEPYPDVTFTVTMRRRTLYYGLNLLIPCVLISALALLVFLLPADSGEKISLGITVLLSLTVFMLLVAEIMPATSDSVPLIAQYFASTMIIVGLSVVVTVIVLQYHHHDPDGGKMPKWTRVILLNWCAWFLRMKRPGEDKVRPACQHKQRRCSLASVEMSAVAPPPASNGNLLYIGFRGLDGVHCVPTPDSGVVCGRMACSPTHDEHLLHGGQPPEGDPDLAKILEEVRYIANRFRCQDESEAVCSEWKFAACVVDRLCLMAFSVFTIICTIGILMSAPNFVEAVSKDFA
T2 sequence (P32297 32-505): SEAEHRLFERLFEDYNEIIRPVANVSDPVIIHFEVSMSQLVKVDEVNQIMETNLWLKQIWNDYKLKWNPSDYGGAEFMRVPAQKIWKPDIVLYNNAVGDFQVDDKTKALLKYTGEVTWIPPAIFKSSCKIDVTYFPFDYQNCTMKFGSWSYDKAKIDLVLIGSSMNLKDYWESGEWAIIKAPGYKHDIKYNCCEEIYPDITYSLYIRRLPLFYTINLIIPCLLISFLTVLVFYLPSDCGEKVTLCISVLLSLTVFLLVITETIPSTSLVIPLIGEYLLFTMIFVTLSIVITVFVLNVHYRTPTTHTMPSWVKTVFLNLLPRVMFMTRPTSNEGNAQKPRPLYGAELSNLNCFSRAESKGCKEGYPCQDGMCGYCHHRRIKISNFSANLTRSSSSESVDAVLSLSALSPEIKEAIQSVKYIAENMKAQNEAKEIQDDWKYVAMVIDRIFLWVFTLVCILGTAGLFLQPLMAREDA
T2 sequence (P17787 26-502): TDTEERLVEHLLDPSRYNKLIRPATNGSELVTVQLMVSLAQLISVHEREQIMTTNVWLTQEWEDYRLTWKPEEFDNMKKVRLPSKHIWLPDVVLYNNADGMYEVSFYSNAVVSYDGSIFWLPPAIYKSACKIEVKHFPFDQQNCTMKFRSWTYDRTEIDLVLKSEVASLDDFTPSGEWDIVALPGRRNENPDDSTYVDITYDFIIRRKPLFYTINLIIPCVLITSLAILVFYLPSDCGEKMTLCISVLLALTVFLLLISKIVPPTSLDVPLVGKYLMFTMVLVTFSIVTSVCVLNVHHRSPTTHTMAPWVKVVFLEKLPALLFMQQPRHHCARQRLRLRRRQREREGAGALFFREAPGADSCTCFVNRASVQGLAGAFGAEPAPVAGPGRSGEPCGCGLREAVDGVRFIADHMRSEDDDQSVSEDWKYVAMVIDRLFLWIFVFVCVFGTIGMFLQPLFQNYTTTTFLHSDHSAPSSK
T4 sequence (P43681 29-627 limits assumed): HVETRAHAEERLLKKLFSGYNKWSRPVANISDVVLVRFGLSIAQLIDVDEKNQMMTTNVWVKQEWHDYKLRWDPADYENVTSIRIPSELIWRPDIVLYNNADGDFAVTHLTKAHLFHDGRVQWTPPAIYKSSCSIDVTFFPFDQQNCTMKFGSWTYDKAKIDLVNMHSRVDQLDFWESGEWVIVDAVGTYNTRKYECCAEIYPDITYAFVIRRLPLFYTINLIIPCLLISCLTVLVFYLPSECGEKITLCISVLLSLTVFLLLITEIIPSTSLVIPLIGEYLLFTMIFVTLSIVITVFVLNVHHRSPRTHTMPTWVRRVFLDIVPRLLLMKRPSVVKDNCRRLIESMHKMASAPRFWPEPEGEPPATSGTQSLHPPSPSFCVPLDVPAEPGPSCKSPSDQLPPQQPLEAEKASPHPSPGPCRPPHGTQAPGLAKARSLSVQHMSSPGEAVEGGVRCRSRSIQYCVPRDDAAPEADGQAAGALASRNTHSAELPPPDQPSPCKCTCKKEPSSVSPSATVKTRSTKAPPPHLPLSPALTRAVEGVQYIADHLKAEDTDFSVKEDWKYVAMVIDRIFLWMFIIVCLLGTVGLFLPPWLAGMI
T4 sequence (P17787 26-502): as the sequence (P17787 26-502) above
α1β1δε mouse muscle receptors, sequence (P04756 21-457): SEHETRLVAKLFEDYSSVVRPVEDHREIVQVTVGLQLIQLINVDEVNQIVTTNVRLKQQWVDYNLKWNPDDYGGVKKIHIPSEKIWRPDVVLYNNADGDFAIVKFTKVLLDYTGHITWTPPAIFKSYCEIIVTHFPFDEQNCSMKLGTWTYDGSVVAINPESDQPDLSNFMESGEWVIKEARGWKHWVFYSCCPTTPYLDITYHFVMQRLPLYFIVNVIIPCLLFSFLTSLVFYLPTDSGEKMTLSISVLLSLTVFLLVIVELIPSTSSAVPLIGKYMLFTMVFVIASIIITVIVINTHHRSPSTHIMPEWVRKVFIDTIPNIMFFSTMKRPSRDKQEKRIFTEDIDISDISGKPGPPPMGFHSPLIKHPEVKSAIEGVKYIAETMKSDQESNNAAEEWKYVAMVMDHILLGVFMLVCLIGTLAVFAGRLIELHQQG
α1β1δε mouse muscle receptors, sequence (P09690 24-501): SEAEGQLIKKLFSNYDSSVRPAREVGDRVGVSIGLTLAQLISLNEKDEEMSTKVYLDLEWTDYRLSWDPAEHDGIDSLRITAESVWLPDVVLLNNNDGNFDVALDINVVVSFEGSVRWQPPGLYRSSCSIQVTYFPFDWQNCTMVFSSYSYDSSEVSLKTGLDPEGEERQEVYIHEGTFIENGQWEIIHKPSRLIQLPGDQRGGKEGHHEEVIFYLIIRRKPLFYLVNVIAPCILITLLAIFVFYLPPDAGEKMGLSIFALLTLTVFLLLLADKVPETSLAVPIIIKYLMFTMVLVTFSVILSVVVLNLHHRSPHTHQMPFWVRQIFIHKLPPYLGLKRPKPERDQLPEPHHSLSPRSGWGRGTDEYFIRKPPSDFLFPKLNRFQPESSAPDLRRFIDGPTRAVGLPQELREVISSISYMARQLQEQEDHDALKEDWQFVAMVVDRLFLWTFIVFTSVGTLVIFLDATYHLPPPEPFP
α1β1δε mouse muscle receptors, sequence (P02716 25-520): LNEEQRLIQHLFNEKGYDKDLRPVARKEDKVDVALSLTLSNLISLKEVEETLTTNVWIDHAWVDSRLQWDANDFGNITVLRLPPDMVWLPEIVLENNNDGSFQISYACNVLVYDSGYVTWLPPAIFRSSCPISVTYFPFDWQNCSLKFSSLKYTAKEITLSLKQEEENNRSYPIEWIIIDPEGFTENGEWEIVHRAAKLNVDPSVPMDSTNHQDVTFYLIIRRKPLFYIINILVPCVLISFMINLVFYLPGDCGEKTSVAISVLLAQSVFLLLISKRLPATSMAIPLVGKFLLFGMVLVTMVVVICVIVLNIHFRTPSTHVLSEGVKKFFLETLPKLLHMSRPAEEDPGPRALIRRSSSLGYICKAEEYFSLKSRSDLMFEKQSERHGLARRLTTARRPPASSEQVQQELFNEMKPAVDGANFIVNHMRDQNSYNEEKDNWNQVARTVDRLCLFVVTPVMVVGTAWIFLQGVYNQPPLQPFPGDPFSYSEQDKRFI
α1β1δε mouse muscle receptors, sequence (P20782 21-493): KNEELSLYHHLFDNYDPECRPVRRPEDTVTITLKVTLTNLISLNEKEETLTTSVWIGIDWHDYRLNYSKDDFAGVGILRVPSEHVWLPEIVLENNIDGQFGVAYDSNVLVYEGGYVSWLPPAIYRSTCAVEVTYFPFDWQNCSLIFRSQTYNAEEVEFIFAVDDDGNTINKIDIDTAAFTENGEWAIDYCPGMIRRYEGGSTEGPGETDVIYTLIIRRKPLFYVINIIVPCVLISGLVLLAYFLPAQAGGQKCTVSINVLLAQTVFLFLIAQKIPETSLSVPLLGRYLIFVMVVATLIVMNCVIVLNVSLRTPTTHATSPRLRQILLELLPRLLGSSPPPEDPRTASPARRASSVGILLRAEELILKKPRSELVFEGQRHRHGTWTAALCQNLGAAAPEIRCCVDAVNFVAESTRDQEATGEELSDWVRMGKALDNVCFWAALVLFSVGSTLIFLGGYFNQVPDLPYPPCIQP
T1 sequence (P32297 32-505): as the sequence (P32297 32-505) above
T1 sequence (P30926 22-498): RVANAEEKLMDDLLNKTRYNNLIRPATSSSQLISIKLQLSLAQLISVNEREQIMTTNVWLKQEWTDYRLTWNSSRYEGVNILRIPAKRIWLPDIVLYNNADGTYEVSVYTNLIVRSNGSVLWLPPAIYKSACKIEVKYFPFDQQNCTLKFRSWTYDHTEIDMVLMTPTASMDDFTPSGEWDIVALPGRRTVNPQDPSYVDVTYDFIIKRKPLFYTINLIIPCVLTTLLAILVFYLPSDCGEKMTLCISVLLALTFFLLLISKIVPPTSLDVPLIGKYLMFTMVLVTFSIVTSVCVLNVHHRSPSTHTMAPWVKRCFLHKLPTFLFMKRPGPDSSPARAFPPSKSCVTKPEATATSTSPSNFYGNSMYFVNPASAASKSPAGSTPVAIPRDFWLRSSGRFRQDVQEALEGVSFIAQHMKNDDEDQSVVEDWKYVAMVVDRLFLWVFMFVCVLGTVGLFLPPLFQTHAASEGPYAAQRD

Clc1cccc(Cl)c1N=C1NCCN1 [clonidine]
cases in which treatment is effective / success rate for motor and vocal tics (TS patients): 40%

CN[C@@]1(C)[C@@H]2CC[C@@H](C2)C1(C)C [exo-S-mecamylamine, exo-S-N,2,3,3-tetramethyl-bicycl-o-[2.1.1]heptan-2-amine hydrochloride]
locomotion at 30 minutes vs saline/cocaine (Swiss-Webster mice [1]): significantly different from the result of cocaine alone | spontaneous locomotor activity, total distance traveled (Sprague-Dawley rats [2]): signigicantly less locomotor depressant effects | stimulation-induced increases in MAP [3]: completely abolished | increases in heart rate (δ HR) vs saline-treated rats [3]: significantly lowered the increases in heart rate | potency rank, stimulation-induced pressor responses ([3]; of the three forms): most potent | inhibition of response to 10 μM glutamate+10 μM glycine [4]: transient inhibition | affinity for binding site compared with cocaine [5]: lower than the affinity of cocaine | stimulation-induced increases in plasma NE levels vs saline ([6]; 2.2 Hz): significantly decreased stimulation-evoked plasma NE increases | stimulation-induced plasma EPI responses ([6]; 2.2 Hz): significant decrease in stimulation-induced plasma EPI responses | overall effectiveness on plasma CA and sympathetically-mediated cardiovascular responses ([6]; of the three forms): most effective in reducing plasma CA | voltage dependence of inhibition (human α3β4 receptors; 1 μM, -40 mV vs 90 mV [sic]): significant voltage dependence | residual inhibition: control ACh response 5 min after exposure (human α3β4 receptors; 5 min wash): marked decrease in subsequent control response to ACh | initial inhibition (nicotine receptors; co-application of 10 μM and ACh at control concentration): greater than 50% | off-loading from some receptors (nicotine receptors; compared with exo-R-mecamylamine): slower than exo-R-mecamylamine | effect on locomotor activity in the last 30 minutes of testing (Swiss-Webster mice [7]; 1 and 3 mg/kg ip): Stimulant effects | dose producing one half of the maximal depressant activity (Swiss-Webster mice [7]; ip, 20 min before testing, maximal depression = 0 counts in 30 minutes): 8.5 mg/kg | affinity for binding site compared with cocaine [8]: lower than the affinity of cocaine | voltage dependence of inhibition (human α3β2 receptors; 5 μM, -40 mV vs 90 mV [sic]): significantly different responses | residual inhibition: control ACh response 5 min after exposure (human α3β2 receptors; 5 min wash): greatest for β2-containing receptors | time constant of recovery (human α3β2 receptors; [13]): about 33 min | affinity for binding site compared with cocaine [9]: lower than the affinity of cocaine | inhibition of muscle receptors after wash ([10]; 5-min wash): fully reversed | effect on muscle receptors ([10]; control ACh 3 μM): very little effect | voltage dependence of inhibition (human α7 receptors; 10 μM, -40 mV vs 90 mV [sic]): significantly different responses | residual inhibition: control ACh response 5 min after exposure (human α7 receptors; 5 min wash): least for α7 receptors | IC50 rank among receptor subtypes (human α7 receptors; control ACh 300 μM, -50 mV): least potent at inhibiting α7 receptors | voltage dependence of inhibition (human α4β2 receptors; 5 μM, -40 mV vs 90 mV [sic]): significant voltage dependence | residual inhibition: control ACh response 5 min after exposure (human α4β2 receptors; 5 min wash): greatest for β2-containing receptors | time constant of recovery, compared with α3β2 (human α4β2 receptors; [13]): similar | duration of seizure vs saline comparison group (Sprague-Dawley rats [11]; [14]): significantly different from their saline comparison groups | seizure latency vs saline comparison group (Sprague-Dawley rats [11]; [14]): significantly longer seizure latency | nicotine-induced seizures (percentage of rats that seized) (Sprague-Dawley rats [11]): prevented nicotine-induced seizures in a dose-dependent manner | duration and severity of seizure vs saline comparison group (Sprague-Dawley rats [11]; nicotine 3.6 mg/kg): significantly different from their saline comparison groups | seizure latency vs saline control (Sprague-Dawley rats [11]; nicotine 3.6 mg/kg): significantly longer latency | number of rats with nicotine-seizures compared with exo-R-mecamylamine (Sprague-Dawley rats [11]; lowest dose 0.1 mg/kg): fewer rats had nicotine-seizures

O=C(CCCN1CCC(O)(c2ccc(Cl)cc2)CC1)c1ccc(F)cc1 [haloperidol]
cases in which treatment is effective / success rate for motor and vocal tics (TS patients): about 70%

CN[C@]1(C)[C@H]2CC[C@H](C2)C1(C)C [exo-R-mecamylamine, reference compound]
stimulation-induced increases in MAP [3]: completely abolished | increases in heart rate (δ HR) vs saline-treated rats [3]: significantly lowered the increases in heart rate | plasma DA levels on sympathetic stimulation vs baseline ([6]; 2.2 Hz): significant increases in plasma DA levels | stimulation-induced increases in plasma NE levels vs saline ([6]; 2.2 Hz): significantly less | effectiveness of isomers compared, particularly center distance and vertical activity [12]: generally more effective at lower doses | duration of seizure vs saline comparison group (Sprague-Dawley rats [11]; [14]): did not differ from their saline comparison group | nicotine-induced seizures (percentage of rats that seized) (Sprague-Dawley rats [11]): prevented nicotine-induced seizures in a dose-dependent manner | duration and severity of seizure vs saline comparison group (Sprague-Dawley rats [11]; nicotine 3.6 mg/kg): significantly different from their saline comparison groups | seizure latency vs saline control (Sprague-Dawley rats [11]; nicotine 3.6 mg/kg): significantly longer latency
